Laboratory results taken from US20260193644A1, “Compositions and Methods For Modulation of Tumor Suppressors and Oncogenes” (FLAGSHIP PIONEERING INNOVATIONS VII, LLC, priority 2022, published 2026).
“And” between values parts separate entries of the source, which are not always exact repeats. Equal values may be shown once.

Legend:
Assay type in all cases: cell-based
U2OS cells [1] = test: WST-1 proliferation assay on U2OS cells treated with peptide
Jurkat cells = test: Caspase-Glo 3/7 apoptosis assay, peptide-treated Jurkat cells; details: listed = significant
Experimental: (§1) Cell Culture: Tumor cell lines HCT-116 (Colon Cancer Cell line, ATCC) and U2OS (Osteoscarcoma Cell line, ATCC) cells were grown adherently in ATCC-formulated McCoy's 5a medium supplemented with 10% FBS and 1× penicillin-streptomycin at 37° C. (5% CO2). Jurkat cells (acute T-cell leukemia cell line, ATCC) were grown as suspension cultures in ATCC-formulated RPMI-1640 supplemented with 10% FBS and 1× penicillin-streptomycin at 37° C. (5% CO2). HEP-G2 cells (Liver Cancer Cell line, ATCC) cells were grown adherently in ATCC-formulated Eagle's Minimum Essential Medium (EMEM) supplemented with 10% FBS and 1× penicillin-streptomycin at 37° C. (5% CO2).
(§2) Peptide Treatment: Target protein SEQ ID NO: 37997 was synthesized through Fluorenylmethyloxycarbonyl (Fmoc) protection group chemistry using Solid Phase Peptide Synthesis (SPPS). 5 μM of target peptide and control peptides were added to a 96 well plate containing 10,000 cells (100 μL/well). A white-walled 96-well plate adequate for cell culture and compatible with the luminometer was used. (Corning)
(§3) Apoptosis Assay: Following 24 hrs of peptide treatment, an equal volume reconstituted Caspase-Glo® 3/7 assay reagent mixture (Promega) was added to the cells. The contents of wells were gently mixed using a plate shaker at 300-500 rpm for 30 seconds. The plate was then Incubate at room temperature for 3 hours. The treated plates were then read for luminescence on Promega™ GloMax® Plate Reader. A blank reaction that contained caspase-Glo® 3/7 reagent, vehicle and cell culture medium without cells was used to measure background luminescence. The blank reaction values were subtracted from experimental values. A negative control that contained caspase-Glo® 3/7 reagent and vehicle-treated cells in medium was included to determine the basal caspase activity of the cell culture system. Significant difference in apoptosis was determined using ANOVA analysis by comparing cells treated with SEQ ID NO: 37997 peptide to cells treated with an irrelevant control peptide, or vehicle control treated cells.

U2OS cells [2] = test: Caspase-Glo 3/7 apoptosis assay, peptide-treated U2OS cells; details: for z-score compared to vehicle control (peptides inducing significant apoptosis): listed = significant
Experimental: as §1, §2, §3

HCT116 cells = test: WST-1 proliferation assay on HCT116 cells treated with peptide
Experimental: Proliferation: HCT-116 cells were plated in 96 well plate (5,000 cells/well) grown in standard media supplemented with 10% FBS. After 48 hours incubation at 37° C. (5% CO2), the cells are subjected to the WST-1 ([…]) assay. The WST-1 assay (Sigma) is a measure of the metabolic activity (i.e. proliferative rate) of cells. […]

HCT-116 cells = test: Caspase-Glo 3/7 apoptosis assay, peptide-treated HCT-116 cells; details: for peptides inducing significant apoptosis (z-score vs vehicle control): listed = significant
Experimental: as §1, §2, §3

C3AR1 = molecular target: T1, C3AR1 (Homo sapiens, UniProt Q16581); test: PathHunter β-Arrestin C3AR1 human complement peptide GPCR agonist assay (gpcrMAX screening and hit-confirmation); details: for % activity with respect to known agonist, C3A Receptor Agonist: hit-confirmation
T1 sequence (Q16581 1-482): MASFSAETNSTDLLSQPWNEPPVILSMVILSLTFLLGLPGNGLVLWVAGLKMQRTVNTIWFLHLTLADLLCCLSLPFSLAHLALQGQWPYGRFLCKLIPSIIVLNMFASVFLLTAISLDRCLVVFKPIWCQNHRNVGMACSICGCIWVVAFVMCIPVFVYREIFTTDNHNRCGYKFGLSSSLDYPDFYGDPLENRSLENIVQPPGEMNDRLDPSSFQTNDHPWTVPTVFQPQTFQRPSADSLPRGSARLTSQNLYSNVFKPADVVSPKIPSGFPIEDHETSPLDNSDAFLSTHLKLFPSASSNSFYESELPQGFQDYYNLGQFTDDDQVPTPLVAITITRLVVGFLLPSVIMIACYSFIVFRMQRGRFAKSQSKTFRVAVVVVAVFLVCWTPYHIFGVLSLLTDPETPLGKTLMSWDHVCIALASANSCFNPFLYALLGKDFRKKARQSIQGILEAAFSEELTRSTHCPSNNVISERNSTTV
Experimental: SEQ ID NO: 30949 blocks CXCR4 and cancer cell migration, making it suitable in the treatment of multiple cancers. Whereas SEQ ID NO: 34229 agonizes C3AR1, a key regulator of immune response and inflammation. The target proteins SEQ ID NO: 30949 and SEQ ID NO: 34229 were treated with gpcrMAX, which is a comprehensive panel covering 168 G protein-coupled receptors (GPCRs) from over 60 distinct receptor families. This panel utilizes PathHunter® β-Arrestin technology (Eurofins DiscoverX). PathHunter β-Arrestin GPCR cell lines are engineered to co-express the ProLink™ (PK) tagged GPCR and the Enzyme Acceptor (EA) tagged β-Arrestin. Activation of the GPCR-PK induces β-Arrestin-EA recruitment, forcing complementation of the two β-galactosidase enzyme fragments (EA and PK). The resulting functional enzyme hydrolyzes substrate to generate a chemiluminescent signal.
Cell Handling: PathHunter® cell lines were expanded from freezer stocks according to standard procedures. Cells were seeded in a total volume of 20 μL into white walled, 384-well microplates and incubated at 37° C. for the appropriate time prior to testing. […]
Signal Detection: Assay signal was generated through a single addition of 12.5 or 15 μL (50% v/v) of PathHunter® Detection reagent cocktail, followed by a one-hour incubation at room temperature. Microplates were read following signal generation with a PerkinElmer Envision™ instrument for chemiluminescent signal detection.
Data Analysis: Compound activity was analyzed using CBIS data analysis suite (ChemInnovation, CA). For agonist mode assays, percentage activity was calculated using the following formula: % Activity=100%×(mean RLU of test sample−mean RLU of vehicle control)/(mean MAX control ligand−mean RLU of vehicle control). For antagonist mode assays, percentage inhibition was calculated using the following formula: % Inhibition=100%×(1−(mean RLU of test sample−mean RLU of vehicle control)/(mean RLU of EC80 control−mean RLU of vehicle control)).

[3] = tested on: HCT116 colon cancer cell line; test: WST-1 proliferation assay on HCT116 cells stably over-expressing target protein; details: 48 hours
Experimental: Over-expression: Stable over-expression tumor cell lines were made by transduction using lentivirus. For virus production, HEK-293T cells were cultured in DMEM with high glucose and GlutaMAX™ medium (ThermoFisher) supplemented with 10% FBS. After 24 h, cells were transfected using lipofectamine 3000 (ThermoFisher) of Lentiviral packaging plasmid mix (CELLECTA) and pGenLenti plasmids (GenScript Inc) containing: 1) no insert, 2) Target Protein encoding sequence, and 3) the AP2A1 protein (positive control for cell proliferation; https://doi.org/10.1038/sj.one.1205216), into HCT116 (Colon cancer cell line; ATCC). A Myc-tag (EQKLISEEDL) was added to the c-terminus of the expressed protein. After 48 hr post-transfection, culture media containing viruses was collected, loaded onto a 10 ml syringe and filtered through a 0.45 μm filter. For cell transduction, HCT116 colorectal cancer cells were seeded in 6-well plates, the virus was added to the cells. After post-transduction, stable cell mixed populations are selected for with puromycin for 14 days. Expression of the Target Protein and controls are confirmed by immunoblot of 50 μg of cell lysate using anti-myc-tag polyclonal antibody (CST).
Proliferation: Polyclonal cell lines that over-express the Target Protein or control, wild-type HCT-116 cells, were plated in 96 well plate (10,000 or 5,000 cells per well) grown in standard media in both low serum (0.1% FBS) and high serum (10% FBS) conditions, respectively. After 48 hours, the cells are subjected to the WST-1 ([…]) assay. The WST-1 assay (Sigma) is a measure of the metabolic activity of group of cells. The higher the metabolic activity the higher the proliferation rate. Significant differences in proliferation are determined by comparing protein-expressing cell lines with a stable cell line of the empty expression vector (control) using ANOVA analysis.

[4] = Low sera (continued), 0.5 uM, head 3 SD
[5] = Low sera (continued), 0.1 uM, head 4 SD
[6] = 5 μM peptide, 24 hrs, vs vehicle control

SEQ ID NO: 27193: ORF peptide; sequence only in Sequence Listing (LRFKVLLRVLFFMAPVPPQVFGQ; listed as Homo sapiens)
proliferation hit score, High sera (U2OS cells [1]; 5 uM, head 5 SD): 15.33 SD | proliferation hit score, Low sera (U2OS cells [1]; [4]): 1.975 SD | proliferation hit score, Low sera (U2OS cells [1]; Low sera, 5 uM, head 2 SD): 2.319 SD | peptides inducing significant apoptosis vs vehicle control (Jurkat cells): SEQ ID NO: 27193 | z-score compared to vehicle control (peptides inducing significant apoptosis) (U2OS cells [2]): SEQ ID NO: 27193 | proliferation hit score, High sera (HCT116 cells; 0.5 uM, head 3 SD): 1.079 SD | proliferation hit score, High sera (HCT116 cells; 5 uM, head 3 sd): 0.8327 SD | proliferation hit score, Low sera (HCT116 cells; [4]): 1.081 SD | proliferation hit score, Low sera (HCT116 cells; Low sera, 5 uM, head 2 SD): 0.6897 SD | peptides inducing significant apoptosis (z-score vs vehicle control) (HCT-116 cells): SEQ ID NO: 27193

SEQ ID NO: 34229: novel peptide GPCR ligand that agonizes C3AR1; sequence only in Sequence Listing (MWILRDRAVHELQAVLLALVLGR; listed as Homo sapiens)
peptides inducing significant apoptosis vs vehicle control (Jurkat cells): SEQ ID NO: 34229 | z-score compared to vehicle control (peptides inducing significant apoptosis) (U2OS cells [2]): SEQ ID NO: 34229 | GPCR ligand mode at C3AR1 (C3AR1; gpcrMAX panel): agonist of C3AR1 | % activity with respect to known agonist, C3A Receptor Agonist (C3AR1; 0.3 μM): significant activity | % activity with respect to known agonist, C3A Receptor Agonist (C3AR1; 1 μM): significant activity

SEQ ID NO: 37997: synthetically produced target protein, secreted tumor suppressor; sequence only in Sequence Listing (MSRLSLSWESLTNAIWPLDLQDIKGYLPNPLPQRVNLRKQILSISKEPN; listed as Homo sapiens)
proliferation hit score, High sera (U2OS cells [1]; 1 uM, head 5 SD): −5.9599 SD | proliferation hit score, High sera (U2OS cells [1]; 10 uM, head 8 SD): −13.23 SD | proliferation hit score, Low sera (U2OS cells [1]; Low sera (continued), 0.1 uM, head 2 SD): −2.359 SD | proliferation hit score, Low sera (U2OS cells [1]; [5]): 1.922 SD | proliferation hit score, Low sera (U2OS cells [1]; Low sera, 1 uM, head 5 SD): 0.3203 SD | proliferation hit score, Low sera (U2OS cells [1]; Low sera, 10 uM, head 6 SD): −16.09 SD | basal apoptosis levels (U2OS cells [2]; [6]): increase in basal apoptosis levels | proliferation (WST-1) vs irrelevant peptide or untreated cells (HCT116 cells; 10 μM, 10% serum, 48 hours): significantly decreases proliferation | proliferation hit score, High sera (HCT116 cells; 0.1 uM, head 3 SD): −3.114 SD | proliferation hit score, High sera (HCT116 cells; 1 uM, head 2 SD): −5.8 SD | proliferation hit score, High sera (HCT116 cells; 10 uM, head 4 SD): −11.51 SD | proliferation hit score, Low sera (HCT116 cells; Low sera, 1 uM, head 3 SD): −3.015 SD | proliferation hit score, Low sera (HCT116 cells; Low sera, 10 uM, head 3 SD): −6.915 SD | basal apoptosis levels (HCT-116 cells; [6]): increase in basal apoptosis levels

B1: SEQ ID NO: 27301: target protein over-expressed (Myc-tagged) in stable HCT116 cell line; oncogene (protein, listed as Homo sapiens)
chain: MVEKSHPSSLPTLPQPLNHCPETYMLLSAAPSGASQLLSTLTLFLKKHRMDIRTISLRMLLSHTGKLAL
modifications: Myc tag
notes: oncogene
proliferation (WST-1) on over-expression vs Empty Vector ([3]; high serum (10% FBS)): significantly increases proliferation | proliferation (WST-1) on over-expression vs Empty Vector ([3]; low serum (0.1% FBS)): significantly increases proliferation

B2: SEQ ID NO: 27000: ORF peptide; sequence only in Sequence Listing (peptide, listed as Homo sapiens)
chain: MNLNPRLRLQVISFHPHPKALAVTLLPALTQSLCLCMASCVYSGPKGFLFLFFPQTAQEKHMKNIT
proliferation hit score, Low sera (U2OS cells [1]; [5]): 7.758 SD and 7.542 SD | proliferation hit score, Low sera (U2OS cells [1]; Low sera, 1 uM, head 5 SD): 5.685 SD and 9.031 SD | peptides inducing significant apoptosis vs vehicle control (Jurkat cells): SEQ ID NO: 27000 | z-score compared to vehicle control (peptides inducing significant apoptosis) (U2OS cells [2]): SEQ ID NO: 27000 | peptides inducing significant apoptosis (z-score vs vehicle control) (HCT-116 cells): SEQ ID NO: 27000
